{"source": "patent US4471131A", "about": "“Novel silyl esters of N-phosphonomethylglycine” (Monsanto Company, priority 1983, dated 1984)", "test_in_all_cases": "post-emergence herbicidal activity, greenhouse", "type_in_all_cases": "in vivo", "key": {"[1]": {"test_system": "Panicum Spp", "conditions": "Table III, 2 WAT", "method_in_brief": "(§1)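 Injury versus control pans was recorded at about 2 and 4 weeks post-treatment. Treatment was post-emergence: an atomizer spray holding roughly 0.4% by weight emulsifier and enough candidate chemical for the tabulated rates, applied to two-to-three-week-old plants raised in top-soil pans.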"}, "[2]": {"test_system": "Canada Thistle", "conditions": "Table II, formulated immediately prior to treatment", "method_in_brief": "as §1"}, "[3]": {"test_system": "Downy Brome", "method_in_brief": "as §1"}, "[4]": {"test_system": "Soybean", "conditions": "Table III, 2 WAT", "method_in_brief": "as §1"}, "[5]": {"test_system": "Yellow Nutsedge", "conditions": "Table II, formulated immediately prior to treatment", "method_in_brief": "(§2)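 Plants grown two to three weeks in greenhouse soil pans were atomizer-sprayed with test chemical in spray containing about 0.4% emulsifier, at the listed rates. Injury relative to unsprayed controls observed at approximately two and four weeks after treatment.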"}, "[6]": {"test_system": "Wild Buckwheat", "conditions": "Table III, 2 WAT", "method_in_brief": "as §1"}, "[7]": {"test_system": "Quackgrass", "conditions": "Table II, formulated immediately prior to treatment", "method_in_brief": "as §2"}, "[8]": {"test_system": "Common Lambsquarters", "method_in_brief": "as §1"}, "[9]": {"test_system": "Johnsongrass", "conditions": "Table II, formulated immediately prior to treatment", "method_in_brief": "as §1"}, "[10]": {"test_system": "Hemp Sesbania", "conditions": "Table III, 2 WAT", "method_in_brief": "as §1"}, "[11]": {"test_system": "Sugar Beet", "conditions": "Table III, 2 WAT", "method_in_brief": "as §1"}, "[12]": {"test_system": "Large Crabgrass", "conditions": "Table III, 2 WAT", "method_in_brief": "as §1"}, "[13]": {"test_system": "Rice", "conditions": "Table III, 2 WAT", "method_in_brief": "as §1"}, "[14]": {"test_system": "Pennsylvania Smartweed", "method_in_brief": "as §1"}, "[15]": {"test_system": "Velvetleaf", "method_in_brief": "as §1"}, "[16]": {"test_system": "Morningglory", "method_in_brief": "as §1"}, "[17]": {"test_system": "Cocklebur", "method_in_brief": "as §1"}, "[18]": {"test_system": "Barnyardgrass", "method_in_brief": "as §1"}, "[19]": {"conditions": "Table II, 2 WAT, 5.6 kg/h, formulated immediately prior to treatment"}, "[20]": {"conditions": "Table II, 2 WAT, 11.2 kg/h, formulated immediately prior to treatment"}, "[21]": {"conditions": "Table II, 4 WAT, 5.6 kg/h, formulated immediately prior to treatment"}, "[22]": {"conditions": "Table II, 4 WAT, 11.2 kg/h, formulated immediately prior to treatment"}}, "data": [{"smiles": "CC(C)OC(=O)CNCP(=O)(O)O[Si](c1ccccc1)(c1ccccc1)C(C)(C)C", "note": "[Ex. 2, Glycine, N((([(1,1-Dimethylethyl)Diphenylsilyl]oxy)-Hydroxyphosphinyl)-, methyl)-, 1-Methylethyl Ester]", "values": [{"measurement": "Plant Response Index (S)", "setting": "[1]; 1.1 kg/h", "value": "0 (0-24% inhibition)"}, {"measurement": "Plant Response Index (S)", "setting": "[1]; 5.6 kg/h", "value": "3 (75-99% inhibition)"}, {"measurement": "Plant Response Index (A)", "setting": "[2]; 2 WAT, 5.6 kg/h", "value": "3 (75-99% inhibition)"}, {"measurement": "Plant Response Index (A)", "setting": "[2]; 2 WAT, 11.2 kg/h", "value": "1 (25-49% inhibition)"}, {"measurement": "Plant Response Index (A)", "setting": "[2]; 4 WAT, 5.6 kg/h", "value": "3 (75-99% inhibition)"}, {"measurement": "Plant Response Index (A)", "setting": "[2]; 4 WAT, 11.2 kg/h", "value": "1 (25-49% inhibition)"}, {"measurement": "Plant Response Index (J)", "setting": "[3]; [19]", "value": "2 (50-74% inhibition)"}, {"measurement": "Plant Response Index (J)", "setting": "[3]; [20]", "value": "3 (75-99% inhibition)"}, {"measurement": "Plant Response Index (J)", "setting": "[3]; [21]", "value": "2 (50-74% inhibition)"}, {"measurement": "Plant Response Index (J)", "setting": "[3]; [22]", "value": "3 (75-99% inhibition)"}, {"measurement": "Plant Response Index (J)", "setting": "[3]; Table III, 2 WAT, 1.1 kg/h", "value": "0 (0-24% inhibition)"}, {"measurement": "Plant Response Index (J)", "setting": "[3]; Table III, 2 WAT, 5.6 kg/h", "value": "3 (75-99% inhibition)"}, {"measurement": "Plant Response Index (L)", "setting": "[4]; 1.1 kg/h", "value": "0 (0-24% inhibition)"}, {"measurement": "Plant Response Index (L)", "setting": "[4]; 5.6 kg/h", "value": "2 (50-74% inhibition)"}, {"measurement": "Plant Response Index (G)", "setting": "[5]; 2 WAT, 5.6 kg/h", "value": "2 (50-74% inhibition)"}, {"measurement": "Plant Response Index (G)", "setting": "[5]; 2 WAT, 11.2 kg/h", "value": "2 (50-74% inhibition)"}, {"measurement": "Plant Response Index (G)", "setting": "[5]; 4 WAT, 5.6 kg/h", "value": "3 (75-99% inhibition)"}, {"measurement": "Plant Response Index (G)", "setting": "[5]; 4 WAT, 11.2 kg/h", "value": "2 (50-74% inhibition)"}, {"measurement": "Plant Response Index (Q)", "setting": "[6]; 1.1 kg/h", "value": "0 (0-24% inhibition)"}, {"measurement": "Plant Response Index (Q)", "setting": "[6]; 5.6 kg/h", "value": "3 (75-99% inhibition)"}, {"measurement": "Plant Response Index (H)", "setting": "[7]; 2 WAT, 5.6 kg/h", "value": "3 (75-99% inhibition)"}, {"measurement": "Plant Response Index (H)", "setting": "[7]; 2 WAT, 11.2 kg/h", "value": "3 (75-99% inhibition)"}, {"measurement": "Plant Response Index (H)", "setting": "[7]; 4 WAT, 5.6 kg/h", "value": "3 (75-99% inhibition)"}, {"measurement": "Plant Response Index (H)", "setting": "[7]; 4 WAT, 11.2 kg/h", "value": "4 (100% inhibition)"}, {"measurement": "Plant Response Index (E)", "setting": "[8]; [19]", "value": "3 (75-99% inhibition)"}, {"measurement": "Plant Response Index (E)", "setting": "[8]; [20]", "value": "3 (75-99% inhibition)"}, {"measurement": "Plant Response Index (E)", "setting": "[8]; [21]", "value": "2 (50-74% inhibition)"}, {"measurement": "Plant Response Index (E)", "setting": "[8]; [22]", "value": "3 (75-99% inhibition)"}, {"measurement": "Plant Response Index (E)", "setting": "[8]; Table III, 2 WAT, 1.1 kg/h", "value": "3 (75-99% inhibition)"}, {"measurement": "Plant Response Index (E)", "setting": "[8]; Table III, 2 WAT, 5.6 kg/h", "value": "3 (75-99% inhibition)"}, {"measurement": "Plant Response Index (I)", "setting": "[9]; 2 WAT, 5.6 kg/h", "value": "3 (75-99% inhibition)"}, {"measurement": "Plant Response Index (I)", "setting": "[9]; 2 WAT, 11.2 kg/h", "value": "3 (75-99% inhibition)"}, {"measurement": "Plant Response Index (I)", "setting": "[9]; 4 WAT, 5.6 kg/h", "value": "3 (75-99% inhibition)"}, {"measurement": "Plant Response Index (I)", "setting": "[9]; 4 WAT, 11.2 kg/h", "value": "3 (75-99% inhibition)"}, {"measurement": "Plant Response Index (R)", "setting": "[10]; 1.1 kg/h", "value": "0 (0-24% inhibition)"}, {"measurement": "Plant Response Index (R)", "setting": "[10]; 5.6 kg/h", "value": "3 (75-99% inhibition)"}, {"measurement": "Plant Response Index (M)", "setting": "[11]; 1.1 kg/h", "value": "0 (0-24% inhibition)"}, {"measurement": "Plant Response Index (M)", "setting": "[11]; 5.6 kg/h", "value": "2 (50-74% inhibition)"}, {"measurement": "Plant Response Index (T)", "setting": "[12]; 1.1 kg/h", "value": "2 (50-74% inhibition)"}, {"measurement": "Plant Response Index (T)", "setting": "[12]; 5.6 kg/h", "value": "3 (75-99% inhibition)"}, {"measurement": "Plant Response Index (O)", "setting": "[13]; 1.1 kg/h", "value": "0 (0-24% inhibition)"}, {"measurement": "Plant Response Index (O)", "setting": "[13]; 5.6 kg/h", "value": "3 (75-99% inhibition)"}, {"measurement": "Plant Response Index (F)", "setting": "[14]; [19]", "value": "3 (75-99% inhibition)"}, {"measurement": "Plant Response Index (F)", "setting": "[14]; [20]", "value": "4 (100% inhibition)"}, {"measurement": "Plant Response Index (F)", "setting": "[14]; [21]", "value": "4 (100% inhibition)"}, {"measurement": "Plant Response Index (F)", "setting": "[14]; [22]", "value": "4 (100% inhibition)"}, {"measurement": "Plant Response Index (F)", "setting": "[14]; Table III, 2 WAT, 1.1 kg/h", "value": "3 (75-99% inhibition)"}, {"measurement": "Plant Response Index (F)", "setting": "[14]; Table III, 2 WAT, 5.6 kg/h", "value": "3 (75-99% inhibition)"}, {"measurement": "Plant Response Index (C)", "setting": "[15]; [19]", "value": "2 (50-74% inhibition)"}, {"measurement": "Plant Response Index (C)", "setting": "[15]; [20]", "value": "3 (75-99% inhibition)"}, {"measurement": "Plant Response Index (C)", "setting": "[15]; [21]", "value": "2 (50-74% inhibition)"}, {"measurement": "Plant Response Index (C)", "setting": "[15]; [22]", "value": "3 (75-99% inhibition)"}, {"measurement": "Plant Response Index (C)", "setting": "[15]; Table III, 2 WAT, 1.1 kg/h", "value": "0 (0-24% inhibition)"}, {"measurement": "Plant Response Index (C)", "setting": "[15]; Table III, 2 WAT, 5.6 kg/h", "value": "3 (75-99% inhibition)"}, {"measurement": "Plant Response Index (D)", "setting": "[16]; [19]", "value": "2 (50-74% inhibition)"}, {"measurement": "Plant Response Index (D)", "setting": "[16]; [20]", "value": "3 (75-99% inhibition)"}, {"measurement": "Plant Response Index (D)", "setting": "[16]; [21]", "value": "2 (50-74% inhibition)"}, {"measurement": "Plant Response Index (D)", "setting": "[16]; [22]", "value": "3 (75-99% inhibition)"}, {"measurement": "Plant Response Index (D)", "setting": "[16]; Table III, 2 WAT, 1.1 kg/h", "value": "0 (0-24% inhibition)"}, {"measurement": "Plant Response Index (D)", "setting": "[16]; Table III, 2 WAT, 5.6 kg/h", "value": "3 (75-99% inhibition)"}, {"measurement": "Plant Response Index (B)", "setting": "[17]; [19]", "value": "2 (50-74% inhibition)"}, {"measurement": "Plant Response Index (B)", "setting": "[17]; [20]", "value": "3 (75-99% inhibition)"}, {"measurement": "Plant Response Index (B)", "setting": "[17]; [21]", "value": "2 (50-74% inhibition)"}, {"measurement": "Plant Response Index (B)", "setting": "[17]; [22]", "value": "3 (75-99% inhibition)"}, {"measurement": "Plant Response Index (B)", "setting": "[17]; Table III, 2 WAT, 1.1 kg/h", "value": "0 (0-24% inhibition)"}, {"measurement": "Plant Response Index (B)", "setting": "[17]; Table III, 2 WAT, 5.6 kg/h", "value": "3 (75-99% inhibition)"}, {"measurement": "Plant Response Index (K)", "setting": "[18]; [19]", "value": "3 (75-99% inhibition)"}, {"measurement": "Plant Response Index (K)", "setting": "[18]; [20]", "value": "3 (75-99% inhibition)"}, {"measurement": "Plant Response Index (K)", "setting": "[18]; [21]", "value": "3 (75-99% inhibition)"}, {"measurement": "Plant Response Index (K)", "setting": "[18]; [22]", "value": "3 (75-99% inhibition)"}, {"measurement": "Plant Response Index (K)", "setting": "[18]; Table III, 2 WAT, 1.1 kg/h", "value": "1 (25-49% inhibition)"}, {"measurement": "Plant Response Index (K)", "setting": "[18]; Table III, 2 WAT, 5.6 kg/h", "value": "3 (75-99% inhibition)"}]}]}
